Assays:
luteinizing hormone (LH) = assay: Luteinizing hormone (LH) inhibition studies, serum LH by ELISA; format: in vivo, castrated male Sprague-Dawley rats; conditions: for reduction in LH levels: 100 mg/kg
Method: Studies measuring LH were performed on castrated male Sprague-Dawley rats. Briefly, animals were castrated through a midline scrotal incision using Zoletil® 50 as an anesthetic. Surgeries were performed at least 15 days before compound testing.
Serum was collected at baseline, then every 15 minutes starting from 30 minutes after PO […] dosing with vehicle, fezolinetant (30 mg/kg), or SB 235375 (30 and 100 mg/kg). Blood was collected from the jugular vein, transferred into 1.5-mL centrifuge tubes, and centrifuged at 8000 g for 15 minutes to separate the serum. Serum LH levels were determined using a rat luteinizing hormone ELISA kit (Colorimetric, Novus). The assays were performed following the manufacturer's protocol. Group sizes were from n=10 for the vehicle and SB 235375 groups and n=4 for fezolinetant.

[1] = system: rats with inflammatory soup-sensitized trigeminal ganglia; assay: In vivo migraine headache model: von Frey periorbital threshold after GTN challenge; set-up: species or system Sprague-Dawley rats
Method: Surgeries were performed as previously described in Oshinsky, M. L. & Gomonchareonsiri, S., Episodic dural stimulation in awake rats: a model for recurrent headache, 47 HEADACHE 1026-1036 (2007). Adult male Sprague-Dawley rats were habituated towards handling for 1-2 weeks before undergoing dural cannulation surgery under isoflurane anesthesia. Attention was given not to disturb the dura. A custom flange guide cannula (22GA, Plastics One) was inserted. The cannula was fixed to the bone with small screws and dental cement.
After 1-2 weeks of recovery from surgery, animals received supradural infusions of an inflammatory soup comprising 2 mM histamine, bradykinin, serotonin, 0.2 mM prostaglandin E2 under brief isoflurane anesthesia (1.5-3%) for 5 consecutive days (1/day) (i.e., the 5-day sensitization period).
The design was within-subjects with the same animals receiving multiple treatments in a crossover fashion with at least one week washout between each treatment. Evoked sensory testing for mechanical allodynia was done by von Frey periorbital threshold testing. Sensory testing occurred during the day using von Frey filaments with reproducible calibrated buckling forces varying from 0.4-10 g and utilizing the up-and-down method. See Dixon, W. J., The Up-and-Down Method for Small Samples, 60 J. AM. STAT. ASSOC., 967-978 (1965); Chaplan, S. R., Bach, F. W., Pogrel, J. W., Chung, J. M. & Yaksh, T. L., Quantitative assessment of tactile allodynia in the rat paw, 53 J. NEUROSCI. METHODS 55-63 (1994) (hereinafter “Chaplan 1994”). Based on the response pattern and the force of the final filament, the periorbital threshold (g) was calculated according to the prior art method set forth, e.g., in Chaplan 1994 and Bonin, R. P., Bories, C. & De Koninck, Y., A simplified up-down method (SUDO) for measuring mechanical nociception in rodents using von Frey filaments, 10 MOL. PAIN 26 (2014). A blinded investigator tested periorbital sensitivity before drug administration, and 45 min and 1.5 h after drug administration. Studies were conducted with n=13-22.

SMILES: Cc1nsc(-c2nnc3n2CCN(C(=O)c2ccc(F)cc2)[C@@H]3C)n1 [fezolinetant]
- mean LH value (luteinizing hormone (LH); 30 mg/kg PO, 0 min (baseline)): 37.3 ng/mL
- mean LH value (luteinizing hormone (LH); 30 mg/kg PO, 30 min): 15.2 ng/mL
- mean LH value (luteinizing hormone (LH); 30 mg/kg PO, 90 min): 6.1 ng/mL
- mean LH value (luteinizing hormone (LH); 30 mg/kg PO, 150 min): 5.5 ng/mL
- reduction in LH levels compared to vehicle (luteinizing hormone (LH); 30 mg/kg, 30 minutes): approximately 60%
- reduction in LH levels compared to vehicle (luteinizing hormone (LH); 30 mg/kg, 90 minutes): roughly 85%
- reduction in LH levels compared to vehicle (luteinizing hormone (LH); 30 mg/kg, 150 minutes): roughly 85%
- LH serum concentrations (luteinizing hormone (LH); 30 mg/kg, all measured time points (30, 90, and 150 min)): significantly reduced
- withdrawal (periorbital) threshold ([1]; GTN + 30 mg/kg PO, 90 min timepoint, vs saline+vehicle or GTN+vehicle): significantly higher
- withdrawal (periorbital) threshold ([1]; GTN + 100 mg/kg PO, both timepoints (45 min, 1.5 h), vs each control group): significantly higher

SMILES: CC[C@H](NC(=O)c1c(OCC(=O)O)c(-c2ccccc2)nc2ccccc12)c1ccccc1 [SB 235375]
- mean LH value (luteinizing hormone (LH); 30 mg/kg PO, 0 min (baseline)): 31.6 ng/mL
- mean LH value (luteinizing hormone (LH); 30 mg/kg PO, 30 min): 33.4 ng/mL
- mean LH value (luteinizing hormone (LH); 30 mg/kg PO, 90 min): 35.8 ng/mL
- mean LH value (luteinizing hormone (LH); 30 mg/kg PO, 150 min): 30.4 ng/mL
- increase in LH levels (luteinizing hormone (LH); 30 mg/kg, 30 minutes): ~+4%
- increase in LH levels (luteinizing hormone (LH); 30 mg/kg, 90 minutes): ~+13%
- reduction in LH levels compared to vehicle (luteinizing hormone (LH); 30 mg/kg, 150 minutes): roughly 4%
- mean LH value (luteinizing hormone (LH); 100 mg/kg PO, 0 min (baseline)): 34.7 ng/mL
- mean LH value (luteinizing hormone (LH); 100 mg/kg PO, 30 min): 25.7 ng/mL
- mean LH value (luteinizing hormone (LH); 100 mg/kg PO, 90 min): 29.7 ng/mL
- mean LH value (luteinizing hormone (LH); 100 mg/kg PO, 150 min): 31.1 ng/mL
- reduction in LH levels (luteinizing hormone (LH); 30 minutes): roughly 26%
- reduction in LH levels (luteinizing hormone (LH); 90 minutes): ~14%
- reduction in LH levels (luteinizing hormone (LH); 150 minutes): ~10%
- LH levels compared to the vehicle-treated group (luteinizing hormone (LH); 30 and 100 mg/kg): did not exhibit a significant difference
- pain (periorbital) threshold ([1]; GTN + 30 and 100 mg/kg PO, 45, 90 minutes, vs GTN and vehicle): higher pain thresholds

Source: US20250270330A1, “TREATMENT OF HEADACHE DISORDERS WITH NK3 MODULATORS” (Kallyope, Inc., priority 2022, published 2025)
